Measured values: patent publication US20230406850A1, “CRYSTALLINE FORM OF HETEROCYCLIC COMPOUND, PREPARATION METHOD THEREFOR AND APPLICATION THEREOF” (WUHAN LL SCIENCE AND TECHNOLOGY DEVELOPMENT CO., LTD., priority 2020, published 2023)
In brackets after ≈: the same amount, converted by molar mass. Where two headings read alike, the source gives them in different places.

Key:
[1] = Solid form change on dehydration, drying or ambient humidity (XRPD); format: physicochemical
From the text: Combined with DSC and TGA pattern, it can be seen that the product is hydrate with about 0.34 water molecules.

[2] = Dynamic vapor sorption (DVS) hygroscopicity; format: physicochemical
Protocol: The solid was analyzed by DVS using IGA sorp dynamic vapor sorption instrument. • Temperature: 25° C. • Gas flow: 250 mL/min. • Scan cycle: 2. • Minimum test time: 30 min. • Maximum test time: 2 hours. • Waiting for balance: 98%.

[3] = Water activity experiment (slurry in acetone/water); format: physicochemical; conditions: three days
Protocol: Water activity experiment was carried out. Crystalline forms I and V ([…]) were slurried in a mixed solvent in acetone/water with different water contents at room temperature and 60° C. for three days, and after three days, solid sample was filtered to test XRPD, and the experimental results are as shown in Table 4.

[4] = Competitive slurrying experiment of crystalline forms I and V; format: physicochemical; conditions: acetone, ethanol, room temperature and 60° C., three days
Protocol: Competitive slurrying experiment was carried out: the same amount of crystalline forms I and V were weighed and mixed evenly, then XRPD was tested, and the results were used as T0 of competitive slurrying experiment. The mixture was slurried in acetone, ethanol and water at room temperature and 60° C. Three days later, solid samples were obtained by filtration, and. XRPD was tested.

[5] = Solid-state crystal transformation between crystalline forms I and V; format: physicochemical; conditions: mixture of forms I and V, oven at 60° C. and room temperature dryer, one week
[6] = Physical and chemical stability (stability boxes, XRPD and HPLC); format: physicochemical; conditions: for Purity -7 days (peak area %) / XRPD: 7 days
Protocol: About 10 mg of crystalline forms I, III and V were placed in the stability boxes at 40° C./75% RH (open) and 60° C. (covered) for seven days, and some samples were taken out for XRPD and HPLC tests at 0 and 7 days, respectively, to investigate their physical and chemical stability.

[7] = Solubility in biological media SGF, FaSSIF and FeSSIF; format: physicochemical; conditions: for solubility at 0.5 h / solubility at 2 h / Solubility: 37° C.
Protocol: Compared with other crystalline forms, crystalline forms I, III and V show good solid properties, so their solubility was tested respectively.
10 mg of the sample was weighed, and then 2.0 mL of biological media buffer (i.e. the target concentration is 5 mg/mL) was added to form a suspension. The mixture was put in a constant temperature water bath shaker (37° C., 100 rpm), and sampled 500 μL at 0.5, 2 and 24 hours respectively. After filtration, the pH value and HPLC concentration of filtrate were tested respectively, and the solid sample obtained by filtration was tested by XRPD.

[8] = Pharmacokinetics, crystalline form I versus crystalline form V; format: in vivo, Beagle dog; conditions: 10 mg/kg po, fasting, male dogs, 0.5% CMC-Na suspension, plasma
Protocol: Beagle dog (general grade, Beijing Masi Biotechnology Co., Ltd.) was given compound A by single oral gavage to study the pharmacokinetics of the compound in plasma. The test drug (100 mg/kg dosage, 5 mL/kg administration volume) was given by gavage, and samples were collected at 10 minutes, 30 minutes, 1 hour, 2 hours, 4 hours, 6 hours, 8 hours, 10 hours, 24 hours and 48 hours after administration: peripheral venipuncture was performed, and about 1.0 mL whole blood was collected from each animal at every time point, and blood samples were collected. Within 60 minutes after blood collection, 0.2 mL of whole blood was separated into a cryopreservation tube, and deionized water was added at a ratio of 1:1, which was mixed upside down and then frozen. The remaining samples were centrifuged at 2,000 g at 2 to 8° C. for 10 min to obtain plasma samples, and the hemolysis of each sample was recorded, and the influence on detection was evaluated, and then the color of plasma was observed and recorded on the blood collection table (“−” means no hemolysis, “+” means pink supernatant and “++” means red supernatant).
The concentration of compound A in plasma was determined by LC-MS/MS method (Non-GLP). The pharmacokinetic parameters were calculated by WinNonlin (Phoenix™, version 8.1) or other similar software. If applicable plasma drug concentration-time data are available, the following pharmacokinetic parameters are calculated: CL (clearance), Vss (steady-state apparent volume of distribution), T1/2 (elimination half-life), Cmax (peak concentration), Tmax (peak time), AUC (area under the concentration-time curve), MRT (mean residence time). Pharmacokinetic data were described by descriptive statistics, such as mean, standard deviation and sample size.
Comparison of crystalline form and crystalline form V is the same for 3 dogs (male), 10 mg/kg po, fasting, 0.5% CMC-Na stirring for 3 hours, and then administration (suspension), and the data obtained are as shown in Table 7.

[9] = test system: Dunkin Hartley guinea pigs, ATP-citric acid induced cough; assay: ATP-citric acid cough model; format: in vivo, guinea pig
Protocol: Male Dunkin Hartley guinea pigs (300-400 g) were placed in a whole-body volume scanning box for 3 to 5 minutes, and then subjected to ATP atomization for 2 minutes, with an interval of 3 minutes, followed by citric acid atomization for 5 minutes, and all atomization rates were about 300 μL/min. From citrate acid atomization, cough times and cough latency of animals within 10 min were recorded. During the 10-minute observation period, manual counting of coughs was required, and the number of coughs was judged according to the guinea pig's coughing posture, such as abdominal twitching, mouth opening, head down hooking, etc., as well as the sound of coughing, the number of coughs in the first 10 minutes were recorded, and the cough incubation period of guinea pigs was also recorded.
Animals were divided into vehicle group, dextromethorphan (63 mg/kg) positive group, AF-219 (30 mg/kg) positive group and compound 172 (3, 10, 30 mg/kg) administration group of Embodiment. All compounds were administered orally, except dextromethorphan, which was administered 40 minutes before ATP-citric acid exposure, and the rest compounds were […].

[10] = 63 mg/kg oral, 40 minutes before ATP-citric acid exposure

COC(=O)N1CCO[C@@H](Cc2c(-c3c(F)cc(S(N)(=O)=O)cc3F)nc3cc(Cl)ccn23)C1 [Crystalline form IV, methyl (S)-2-((7-chloro-2-(2,6-difluoro-4-sulfamoylphenyl)imidazo[1,2-a]pyridin-3-yl)methyl)morpholine-4-carboxylate]
crystalline form after dehydration ([1]; heating to dehydration, then ambient humidity): becomes crystalline form I again

COC(=O)N1CCO[C@@H](Cc2c(-c3c(F)cc(S(N)(=O)=O)cc3F)nc3cc(Cl)ccn23)C1 [Crystalline form V, methyl (S)-2-((7-chloro-2-(2,6-difluoro-4-sulfamoylphenyl)imidazo[1,2-a]pyridin-3-yl)methyl)morpholine-4-carboxylate]
XRPD before and after the DVS test [2]: no obvious change in the XRPD
hygroscopicity (DVS) ([2]; 80% RH, 25° C.): 0.7%
The experimental results (crystalline form) ([3]; water content 10%, 60° C.): Crystalline form VI
The experimental results (crystalline form) ([3]; water content 10%, RT): Crystalline form I
The experimental results (crystalline form) ([3]; water content 50%, 60° C.): Crystalline form IV
The experimental results (crystalline form) ([3]; water content 50%, RT): Crystalline form IV
The experimental results (crystalline form) ([3]; water content 90%, 60° C.): Crystalline form IV
The experimental results (crystalline form) ([3]; water content 90%, RT): Crystalline form IV
relative stability inferred from competitive slurrying and water activity tests [4]: stable at high temperature (60° C.) in water
mutual crystal transformation in solid state [5]: no mutual crystal transformation trend
Initial purity (Peak area %) ([6]; 0 days): 99.29 peak area %
Purity -7 days (peak area %) ([6]; 40° C./75% RH (open)): 99.28 peak area %
XRPD ([6]; 40° C./75% RH (open)): Constant
stability conclusion in words ([6]; 40° C./75% RH and 60° C., seven days): good physical and chemical stability
Purity -7 days (peak area %) ([6]; 60° C. (covered)): 99.30 peak area %
XRPD ([6]; 60° C. (covered)): Constant
solubility at 0.5 h ([7]; FaSSIF, 37 °C, fassif, thermodynamic from solid, FaSSIF, 0.5 h, read-out: Solubility): 30 µg/mL (≈ 59.9 µM)
solubility at 2 h ([7]; FaSSIF, 37 °C, fassif, thermodynamic from solid, FaSSIF, 2 h, read-out: Solubility): 34 µg/mL (≈ 67.9 µM)
solubility at 24 h ([7]; FaSSIF, 37 °C, thermodynamic from solid, 24 h): 45 µg/mL (≈ 89.8 µM)
XRPD of remaining solid ([7]; FaSSIF, 0.5 h): Unchanged
pH of filtrate ([7]; FaSSIF, 0.5 h): 6.4
XRPD of remaining solid ([7]; FaSSIF, 2 h): Unchanged
pH of filtrate ([7]; FaSSIF, 2 h): 6.4
XRPD of remaining solid ([7]; FaSSIF, 24 h): Unchanged
pH of filtrate ([7]; FaSSIF, 24 h): 6.4
XRPD of remaining solid ([7]; FeSSIF, 0.5 h): Unchanged
pH of filtrate ([7]; FeSSIF, 0.5 h): 5.0
Solubility ([7]; FeSSIF, 0.5 h): 91 µg/mL (≈ 182 µM)
XRPD of remaining solid ([7]; FeSSIF, 2 h): Unchanged
pH of filtrate ([7]; FeSSIF, 2 h): 5.0
Solubility ([7]; FeSSIF, 2 h): 93 µg/mL (≈ 186 µM)
XRPD of remaining solid ([7]; FeSSIF, 24 h): Unchanged
pH of filtrate ([7]; FeSSIF, 24 h): 5.1
Solubility ([7]; FeSSIF, 24 h): 121 µg/mL (≈ 242 µM)
solubility at 0.5 h ([7]; SGF, 37 °C, simulated gastric fluid, thermodynamic from solid, SGF, 0.5 h, read-out: Solubility): 4330 µg/mL (≈ 8650 µM)
solubility at 2 h ([7]; SGF, 37 °C, simulated gastric fluid, thermodynamic from solid, SGF, 2 h, read-out: Solubility (visual observation)): > 5000 µg/mL
pH of filtrate ([7]; SGF, 0.5 h): 1.2
pH of filtrate ([7]; SGF, 2 h): 1.1
pH of filtrate ([7]; SGF, 24 h): 1.2
AUClast [8]: 2637.43 ng·h/mL
Cmax [8]: 170.43 ng/mL
F [8]: 11.7%
MRTlast [8]: 10.39 h
T1/2 [8]: 44.35 h
Tmax [8]: 4.67 h

COC(=O)N1CCO[C@@H](Cc2c(-c3c(F)cc(S(N)(=O)=O)cc3F)nc3cc(Cl)ccn23)C1 [Crystalline form VI, methyl (S)-2-((7-chloro-2-(2,6-difluoro-4-sulfamoylphenyl)imidazo[1,2-a]pyridin-3-yl)methyl)morpholine-4-carboxylate]
crystalline form after being placed under ambient humidity ([1]; 35% RH, a few minutes): transforms into crystalline form I

COC(=O)N1CCO[C@@H](Cc2c(-c3c(F)cc(S(N)(=O)=O)cc3F)nc3cc(Cl)ccn23)C1 [Crystalline form VIII, methyl (S)-2-((7-chloro-2-(2,6-difluoro-4-sulfamoylphenyl)imidazo[1,2-a]pyridin-3-yl)methyl)morpholine-4-carboxylate]
crystalline form after desolvation by vacuum drying ([1]; vacuum drying at 40° C. for 3 hours): transformed into crystalline form I

COc1ccc2c(c1)[C@]13CCCC[C@@H]1[C@H](C2)N(C)CC3 [Dextromethorphan, dextromethorphan, reference compound]
Cough suppression rate vs Vehicle [9, 10]: 61.60%
Coughing times in 10 min [9, 10]: 8.00
effect on number of coughs compared with the vehicle group, in words ([9]; guinea pig, in vivo): significantly reduce the number of coughs
